From US7709475B2, “Selective inhibitors against Cdk4 and Cdk6 having aminothiazole skeleton” (Banyu Pharmaceutical Co., Ltd., priority 2004, dated 2010)
pIC50: −log10 of the molar value.

Tests used:
cyclin H-Cdk7 = molecular target: T1, cyclin H-Cdk7 (Homo sapiens, UniProt P50613); assay: Cdk7 inhibitory action: cyclin H-Cdk7 kinase activity; format: biochemical; settings: cyclin H-Cdk7, 50 μM ATP
T1 construct: made in house; host or cells: insect cell Sf9 (baculovirus)
Text: The cDNA of Cdk7, and the cDNA of a fusion protein of cyclin H, an activating factor of Cdk7, and glutathione S-transferase, were integrated into a baculovirus expression vector to prepare a recombinant baculovirus. This was co-transfected into insect cell Sf9 to express an active complex of the cyclin H/glutathione S-transferase fusion protein-Cdk7 at a high level. The cells were recovered and solubilized, then the active complex was adsorbed onto Glutathione Sepharose, and a cyclin H-Cdk7 active complex was recovered using Precision Protease.
For the measurement of the activity of cyclin H-Cdk7, a synthetic peptide ([…] was used as the substrate.
(§1) The reaction was performed by partially modifying the method of Kitagawa et al. [Oncogene, Vol. 7, 1067-1074 (1992)]. The volume of the reaction solution was 21.1 μL, and to the R buffer, purified cyclin H-Cdk7, 25 μM of the substrate peptide, 50 μM of non-labeled adenosine triphosphate (ATP), and 1 μCi of [γ-33P]-labeled ATP (2000 to 4000 Ci/mmole) were added to react at 30° C. for 45 minutes. Then, 10 μL of 350 mM phosphate buffer was added to the reaction system to terminate the reaction. The substrate peptide was adsorbed onto P81 paper filter on a 96-well plate, and then washed several times with 75 mM phosphate buffer. The radioactivity of the substrate peptide was measured with a liquid scintillation counter.
(§2) Addition of the compound according to the invention to the reaction system was carried out by first preparing a dilution series of solutions of the compound in dimethylsulfoxide (DMSO), and adding 1.1 μL of the dilutions. A control was provided by adding 1.1 μL of DMSO to the reaction system.
A representative compound of the compounds according to the invention was selected, and the IC50 value of this compound for the cyclin H-Cdk7 activity was determined.

EOL-1 = assay: Inhibitory action against cell proliferation (WST-8), EOL-1; format: cell-based; settings: Homo sapiens, EOL1, 72 h, EOL-1 cells, 3 days culture, read-out: concentration for 50% inhibition of cell proliferation (IC50), EOL-1
Experimental: (§3) Clinically isolated cancer cell lines EOL-1, KU812 and JURKAT were cultured in RPMI1640 medium containing 10% fetal calf serum at 37° C. in the presence of 5% CO2 under an atmosphere of saturated steam.
(§4) The inhibitory action against cell proliferation was measured by modifying the method of Skehan et al. [J. Natl. Cancer Inst., Vo. 82, 1107-1112 (1990)] according to the method of Ishiyama et al. [Talanta, Vol. 44, 1299 (1997)]. 100 μL each of cell culture medium containing 1×10^3 live cells of EOL-1, KU812 and JURKAT, respectively, was dispensed into each well of a 96-well cell culture dish, and the cells were cultured overnight. On the next day, a dilution series of solutions in DMSO was prepared from a DMSO solution of the compound of each Example. Then, the dilution series of solutions or DMSO only as a control for no drug addition were separately added to the medium for cell culture. Finally, 100 μL each of the culture medium containing either the dilution series of solutions of the compounds or DMSO only, was added to the cells which had been cultured in a 96-well dish, and then the cells were further cultured for 3 days.
(§5) After adding 20 μL each of WST-8 (Kishida Chemical Co., Ltd.) to each well and culturing the cells for another 2 hours, the optical densities at 450 nm were measured against a reference wavelength of 650 nm, and were compared with the control group. […]

KU812 = assay: Inhibitory action against cell proliferation (WST-8), KU812; format: cell-based; settings: Homo sapiens, 72 h, KU812 cells, 3 days culture, read-out: concentration for 50% inhibition of cell proliferation (IC50), KU812
Experimental: as §3, §4, §5

p35-Cdk5 = molecular target: T2, p35-Cdk5 (Homo sapiens, UniProt Q00535); assay: Cdk5 inhibitory action: p35-Cdk5 kinase activity; format: biochemical; settings: p35-Cdk5, 50 μM ATP
T2 construct: purchased PanVera Corp; host or cells: insect cell
Experimental: For the measurement of the activity of p35-Cdk5, a human-derived recombinant […] active complex, which was expressed in insect cell and purified, was purchased from PanVera Corp. A synthetic peptide (Ala-Lys-Ala-Lys-Lys-Thr-Pro-Lys-Lys-Ala-Lys-Lys) was used as the substrate.
as §1, with “p35-Cdk5, 0.01 mg/mL” for “H-Cdk7, 25 μM”, “[…])” for “Ci/mmole)”, “10” for “45”
as §2
A representative compound of the compounds according to the invention was selected, and the IC50 value of this compound for the p35-Cdk5 activity was determined.

cyclin D2-Cdk4 = molecular target: T3, cyclin D2-Cdk4 (Homo sapiens, UniProt P11802); assay: Cdk4 inhibitory action: cyclin D2-Cdk4 kinase activity, 33P-ATP, RB peptide substrate; format: biochemical; settings: for K1/K4, selectivity for Cdk4 against Cdk1: IC50 of Cdk1 divided by IC50 of Cdk4; for K2/K4, selectivity for Cdk4 against Cdk2: IC50 of Cdk2 divided by IC50 of Cdk4; for K5/K4, selectivity for Cdk4 against Cdk5: IC50 of Cdk5 divided by IC50 of Cdk4; for K7/K4, selectivity for Cdk4 against Cdk7: IC50 of Cdk7 divided by IC50 of Cdk4; for K9/K4, selectivity for Cdk4 against Cdk9: IC50 of Cdk9 divided by IC50 of Cdk4
T3 construct: made in house; host or cells: insect cell Sf9 (baculovirus)
T3 sequence (P11802 whole entry): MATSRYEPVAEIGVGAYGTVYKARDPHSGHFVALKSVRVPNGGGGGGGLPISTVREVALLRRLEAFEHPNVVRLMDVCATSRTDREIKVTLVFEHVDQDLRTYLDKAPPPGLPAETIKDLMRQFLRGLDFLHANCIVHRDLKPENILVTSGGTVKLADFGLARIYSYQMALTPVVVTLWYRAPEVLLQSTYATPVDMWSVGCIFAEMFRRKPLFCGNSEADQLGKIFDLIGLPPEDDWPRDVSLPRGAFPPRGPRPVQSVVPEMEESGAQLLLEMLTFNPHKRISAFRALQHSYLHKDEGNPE
T3 sequence (P30279 whole entry partner): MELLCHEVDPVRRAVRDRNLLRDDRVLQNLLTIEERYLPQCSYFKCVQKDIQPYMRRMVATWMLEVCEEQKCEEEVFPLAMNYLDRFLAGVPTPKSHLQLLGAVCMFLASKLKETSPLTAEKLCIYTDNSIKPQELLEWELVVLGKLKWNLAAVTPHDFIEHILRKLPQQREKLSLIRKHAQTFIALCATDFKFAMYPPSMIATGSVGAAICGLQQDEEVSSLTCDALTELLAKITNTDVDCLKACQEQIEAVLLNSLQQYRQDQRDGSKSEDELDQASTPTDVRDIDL

T2 sequence (Q00535 whole entry): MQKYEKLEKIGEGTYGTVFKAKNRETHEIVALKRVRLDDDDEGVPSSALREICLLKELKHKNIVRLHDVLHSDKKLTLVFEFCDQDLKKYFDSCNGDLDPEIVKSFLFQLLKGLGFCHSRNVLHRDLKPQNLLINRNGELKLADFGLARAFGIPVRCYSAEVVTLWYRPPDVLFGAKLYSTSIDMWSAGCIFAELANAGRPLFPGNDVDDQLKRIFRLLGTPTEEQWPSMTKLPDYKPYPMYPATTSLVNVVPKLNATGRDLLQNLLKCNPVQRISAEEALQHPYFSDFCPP
T2 sequence (Q15078 whole entry partner): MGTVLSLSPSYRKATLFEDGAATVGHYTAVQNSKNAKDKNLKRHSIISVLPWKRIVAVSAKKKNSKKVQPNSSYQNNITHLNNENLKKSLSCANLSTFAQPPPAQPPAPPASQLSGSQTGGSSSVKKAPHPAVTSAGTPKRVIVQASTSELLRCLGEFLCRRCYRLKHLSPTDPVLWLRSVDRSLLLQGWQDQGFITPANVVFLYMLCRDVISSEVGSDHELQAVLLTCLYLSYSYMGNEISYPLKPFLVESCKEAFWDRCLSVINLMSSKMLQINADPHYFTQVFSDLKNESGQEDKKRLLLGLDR
T1 sequence (P50613 whole entry): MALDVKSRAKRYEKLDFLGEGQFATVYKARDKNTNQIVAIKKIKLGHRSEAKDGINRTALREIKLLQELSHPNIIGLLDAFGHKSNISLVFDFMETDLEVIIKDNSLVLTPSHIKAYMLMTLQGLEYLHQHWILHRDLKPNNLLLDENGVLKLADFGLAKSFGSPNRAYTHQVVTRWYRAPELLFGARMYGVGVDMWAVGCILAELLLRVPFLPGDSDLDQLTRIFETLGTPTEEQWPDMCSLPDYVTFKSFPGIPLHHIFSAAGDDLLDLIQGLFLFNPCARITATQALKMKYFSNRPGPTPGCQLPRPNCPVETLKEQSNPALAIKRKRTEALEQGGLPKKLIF
T1 sequence (P51946 whole entry partner): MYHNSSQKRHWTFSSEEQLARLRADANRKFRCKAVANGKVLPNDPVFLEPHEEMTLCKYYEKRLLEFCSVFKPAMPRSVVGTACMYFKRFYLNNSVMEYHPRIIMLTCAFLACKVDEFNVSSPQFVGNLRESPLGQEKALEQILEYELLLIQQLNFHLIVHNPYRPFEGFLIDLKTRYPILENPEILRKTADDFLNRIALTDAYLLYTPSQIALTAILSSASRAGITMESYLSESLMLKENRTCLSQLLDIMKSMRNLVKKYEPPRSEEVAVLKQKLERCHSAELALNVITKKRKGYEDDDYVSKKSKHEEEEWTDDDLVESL

| Compound | pIC50 (cyclin H-Cdk7) | pIC50 (p35-Cdk5) | K1/K4, selectivity for Cdk4 against Cdk1 (cyclin D2-Cdk4) | K2/K4, selectivity for Cdk4 against Cdk2 (cyclin D2-Cdk4) | K5/K4, selectivity for Cdk4 against Cdk5 (cyclin D2-Cdk4) | K7/K4, selectivity for Cdk4 against Cdk7 (cyclin D2-Cdk4) | K9/K4, selectivity for Cdk4 against Cdk9 (cyclin D2-Cdk4) | pIC50 (EOL-1) | pIC50 (KU812) |
| --- | --- | --- | --- | --- | --- | --- | --- | --- | --- |
| Cc1cc(-c2cnc(Nc3cnc(CN4CCN(C)CC4)cn3)s2)nc(OC2CCCCC2)n1 [Example 1, 5-[2-(cyclohexyloxy)-6-methyl-4-pyrimidinyl]-2-[5-(4-methyl-1-piperazinyl)methyl-2-pyrazinyl]amino-1,3-thiazole] | 6.28 | – | 65 | 185 | 326 | 58 | 272 | 7.27 | 6.82 |
| Cc1cc(-c2cnc(Nc3cnc(CNC(C)C)cn3)s2)nc(SC2CCCCC2)n1 [Example 96, 5-[2-(cyclohexylthio)-6-methyl-4-pyrimidinyl]-2-[5-(isopropylamino)methyl-2-pyrazinyl]amino-1,3-thiazole] | 6.80 | – | – | – | – | – | – | – | – |
| Cc1cc(-c2cnc(Nc3ccc(CN4CCC[C@H]4CO)cn3)s2)nc(NC2CCCCC2)n1 [Example 137, (2S)-5-[2-(cyclohexylamino)-6-methyl-4-pyrimidinyl]-2-[5-(2-hydroxymethyl-1-pyrrolidinyl)methyl-2-pyridyl]amino-1,3-thiazole] | 5.92 | – | 167 | 625 | 417 | 167 | 153 | – | – |
| Cc1cc(-c2cnc(Nc3cnc(CNCCO)cn3)s2)nc(SC2CCCCC2)n1 [Example 99, 5-[2-(cyclohexylthio)-6-methyl-4-pyrimidinyl]-2-[5-(2-hydroxyethylamino)methyl-2-pyrazinyl]amino-1,3-thiazole] | 6.92 | 5.62 | – | – | – | – | – | – | – |
| Cc1cc(-c2cnc(Nc3cnc(CN4CCN(C)CC4)cn3)s2)nc(NC2CCCCC2)n1 [Example 55, 5-[2-(cyclohexylamino)-6-methyl-4-pyrimidinyl]-2-[5-(4-methyl-1-piperazinyl)methyl-2-pyrazinyl]amino-1,3-thiazole] | 6.34 | – | – | – | – | – | – | – | – |

More lines, main results first:

| pIC50 (cyclin H-Cdk7) | pIC50 (p35-Cdk5) | K1/K4, selectivity for Cdk4 against Cdk1 (cyclin D2-Cdk4) | K2/K4, selectivity for Cdk4 against Cdk2 (cyclin D2-Cdk4) | K5/K4, selectivity for Cdk4 against Cdk5 (cyclin D2-Cdk4) | K7/K4, selectivity for Cdk4 against Cdk7 (cyclin D2-Cdk4) | K9/K4, selectivity for Cdk4 against Cdk9 (cyclin D2-Cdk4) | Compound | pIC50 (EOL-1) | pIC50 (KU812) |
| --- | --- | --- | --- | --- | --- | --- | --- | --- | --- |
| 6.43 | – | – | – | – | – | – | CC(=O)N1CCN(Cc2ccc(Nc3ncc(-c4cc(C)nc(OC5CCCCC5)n4)s3)nc2)CC1 [Example 125, 5-[2-(cyclohexyloxy)-6-methyl-4-pyrimidinyl]-2-[5-(4-acetyl-1-piperazinyl)methyl-2-pyridyl]amino-1,3-thiazole] | 8.25 | 6.74 |
| 6.43 | 5.59 | 103 | 142 | 433 | 62 | 72 | Cc1cc(-c2cnc(Nc3cnc(CN4CCC(N(C)C)C4)cn3)s2)nc(OC2CCCCC2)n1 (centres unmarked) [Example 13, 5-[2-(cyclohexyloxy)-6-methyl-4-pyrimidinyl]-2-[5-(3-dimethylamino-1-pyrrolidinyl)methyl-2-pyrazinyl]amino-1,3-thiazole] | – | – |
| 7.04 | – | – | – | – | – | – | Cc1cc(-c2cnc(Nc3cnc(CN4CCC(N(C)C)C4)cn3)s2)nc(SC2CCCCC2)n1 (centres unmarked) [Example 94, 5-[2-(cyclohexylthio)-6-methyl-4-pyrimidinyl]-2-[5-(3-dimethylamino-1-pyrrolidinyl)methyl-2-pyrazinyl]amino-1,3-thiazole] | – | – |
| 6.55 | – | – | – | – | – | – | Cc1cc(-c2cnc(Nc3cnc(CN4CCN(C)CC4)cn3)s2)nc(Sc2ccccc2Cl)n1 [Example 109, 5-[2-(2-chlorophenylthio)-6-methyl-4-pyrimidinyl]-2-[5-(4-methyl-1-piperazinyl)methyl-2-pyrazinyl]amino-1,3-thiazole] | – | – |
| 6.85 | 5.54 | – | – | – | – | – | Cc1cc(-c2cnc(Nc3cnc(CN4CCCC4)cn3)s2)nc(SC2CCCCC2)n1 [Example 93, 5-[2-(cyclohexylthio)-6-methyl-4-pyrimidinyl]-2-[5-(1-pyrrolidinyl)methyl-2-pyrazinyl]amino-1,3-thiazole] | – | – |
